Laboratory results from article PMC9325934, “Preliminary mechanistic insights of a brain-penetrant microtubule imaging PET ligand in a tau-knockout mouse model” (EJNMMI Research, 2022).
Structures can show the parent of a compound that is named as a salt.

Experiments:
[1] = tested on: stabilized/bound and destabilized/free tubulins of SH-SY5Y cells; assay: Cytoskeleton kit-based tubulin assay with [11C]MPC-6827 (free vs bound tubulin fractions); assay type: cell-based, human; settings: for decrease of [11C]MPC-6827 radioactivity in bound tubulin fractions / decrease of [11C]MPC-6827 radioactivity in free tubulin fractions / increase of [11C]MPC-6827 radioactivity in bound fractions / increase of [11C]MPC-6827 radioactivity in free tubulin fractions: 1.0 µM agent 3 h, vs untreated fractions
Experimental: To further investigate the tubulin selectivity of [^11C]MPC-6827 in SH-SY5Y cells, tubulin assay was performed using the commercially available kit-based assay (Cytoskeleton Inc, USA). Briefly, SH-SY5Y cells (7 × 10^6 cells/well) were pretreated with 1.0 µM of same MT stabilizing (EpoD, paclitaxel) and destabilizing agents (mertasine, vinblastine) for 3 h (n = 3/group). […] Samples were loaded on to ultra-centrifuge following the kit-based assay parameters to separate stabilized/bound and destabilized/free tubulins. Stabilized tubulins from low-speed centrifugation (1000×g for 5 min at 37 °C) and destabilized tubulins from high speed centrifugation (100,000×g for 20 min at 37 °C) were collected separately and their associated radioactivity was measured using a γ counter (Perkin Elmer).

[2] = [11C]MPC-6827 brain microPET/CT at baseline and after EpoD treatment; assay type: in vivo; settings: female Balb/C mice, EpoD 3.0 mg/kg intraperitoneal, 3 days acute treatment
Experimental: To validate the in vitro MT-stabilization cell uptake results, normal Balb/C mice (n = 6, 6 mo old) were treated with epothilone D (EpoD), a brain-penetrant, MT-stabilizing drug commonly used in tauopathies. [^11C]MPC-6827 brain PET/CT imaging was performed at baseline and after 3 days of acute treatment of EpoD treatment (3.0 mg/kg intraperitoneal injection). Whole-brain SUVmax was calculated and compared between the baseline and post-drug treatment scans.

[3] = tested on: SH-SY5Y cells; assay: In vitro [11C]MPC-6827 cell uptake assay with MT stabilizing/destabilizing agents and self-blocking
Experimental: Cell-binding assays in vitro were performed in SH-SY5Y cells with [^11C]MPC-6827 following our published protocols [20, 21]. […] They (0.5 × 10^6 cells/well) were treated with 1.0 µM of (a) stabilizing agents that increase MT polymerizations (paclitaxel, EpoD) [1, 25] or destabilizing agents increasing free tubulin content (vinblastine, mertasine) [26, 27] and 3 h later, [^11C]MPC-6827 (0.074 MBq/well) was added and incubated for 30 min at RT (n = 6/group). […] All the cells were washed with PBS and lysed with 1 N NaOH. Finally, the lysate from each well was γ-counted (PerkinElmer, Waltham, MA, USA) and counts-per-minute (cpm) values were normalized to the amount of radioactivity added to each well. Protein concentration was estimated in a subgroup of cells (n = 3) using the established Pierce BCA Protein Assay Kit from ThermoFisher [28, 29]. Cpm values were then matched to protein concentration per well, and the data expressed as %ID/mg of protein in each well.

[4] = In vitro autoradiography of [11C]MPC-6827 on brain sections; assay type: binding, mice
Experimental: Autoradiography studies in vitro were performed on postmortem frozen brain sections from tau KO and control mice (n = 6/group) following published protocols. Briefly, the sagittal sections were mount on a glass slides (Super frost plus slides, Fisher Scientific, Waltham, MA), air-dried for 30 min and incubated in PBS (pH 7.4) for 10 min to remove any endogenous binding. Additionally, a sub-section of tau KO brains (n = 4) were self-blocked with non-radioactive MPC-6827 (10 µM) 1 h prior to radiotracer treatment. The slides were air-dried and ~ 0.5 MBq of [^11C]MPC-6827 in PBS was added to each slide and incubated for 30 min. The slides were then washed with PBS (3×) and water (1×) at 4 °C and quickly air-dried. Slides containing the brain tissues were exposed to radioluminographic imaging cassette BAS IP SR 2025 (GE Healthcare) for 12 h at − 20 °C and scanned with a GE Amersham Typhoon scanner (25 µm pixel size). Autoradiographs were analyzed using ImageQuant TL 8.2 and ROI were manually drawn (see Additional file 1: 3), and specific binding in each ROI was calculated and expressed as photo-stimulated luminescence signals per square millimeter (PSL/mm^2).

[5] = tested on: β-tubulin; parameters: method as in PMID 17575155; settings: high-affinity, selective β-tubulin binding MT agent; cited from earlier work
[6] = parameters: method as in earlier work; settings: mice, rats, and dogs; cited from earlier work
[7] = [11C]MPC-6827 microPET/CT brain imaging in tau KO and WT mice; assay type: in vivo
Experimental: Small animal microPET/CT imaging was performed in anesthetized tau-KO and WT mice (n = 8/group) at 6 months of age. All mice received a bolus injection of [^11C]MPC-6827 (18.1 ± 0.01 MBq) via the tail vein. For the microPET/CT scans, the head/brain area was centered in the field of view, and the list-mode data from the emission scans were reframed into a 0-60 min dynamic binning sequence. Time-activity curves (TACs) were obtained, and radioactive uptake was expressed as standardized uptake values (SUVs) using the PMOD analysis software. Regions of interest (ROIs) were drawn for the whole brain and commonly AD-affected regions including cortex, striatum, hippocampus, and cerebellum, using Π-pmod Atlas software.

[8] = Post-PET ex vivo biodistribution of [11C]MPC-6827 in tau KO and WT mice
Experimental: Post-PET radiotracer tissue biodistribution studies were performed with [^11C]MPC-6827 in the KO and WT mice (n = 4/group). After dynamic brain imaging from 0 to 60 min, mice were euthanized, and samples of brain, blood, heart, lung, liver, spleen, pancreas, kidney, and muscle were harvested, weighed, and γ-counted using a Wallac Gamma Counter (PerkinElmer) with a standard dilution of the injectate. […]

[9] = 1.0 µM agent for 3 h, then tracer 30 min at RT, vs untreated cells

C/C1=C/C[C@@H](/C(C)=C/c2csc(C)n2)OC(=O)C[C@H](O)C(C)(C)C(=O)[C@H](C)[C@@H](O)[C@@H](C)CCC1 [EpoD, Epothilone d]
decrease of [11C]MPC-6827 radioactivity in bound tubulin fractions [1]: ~ 62 (± 6) % | decrease of [11C]MPC-6827 radioactivity in free tubulin fractions [1]: ~ 44 (± 1) % | lower [11C]MPC-6827 brain uptake (whole-brain SUVmax) with EpoD treatment compared to baseline [2]: ~ 23 (± 1) % | decrease of [11C]MPC-6827 radioactive uptake [3, 9]: ~ 44 (± 2) %

COc1ccc(N(C)c2nc(C)nc3ccccc23)cc1 [MPC-6827, MPC-6827 hydrochloride]
lower radiotracer uptake on blocking compared to untreated tau KO samples ([4]; non-radioactive MPC-6827 10 µM 1 h prior to radiotracer, whole brain, cortex, hippocampus, mid-brain regions of tau KO sections): 63–70% | IC50 [5]: 1.5 nM | brain-to-plasma ratios [6]: 14–30 times | lower [11C]MPC-6827 radioactive uptake in self-blocking assay ([3]; non-radioactive MPC-6827 1.0 µM 60 min before tracer, 30 min incubation): ~ 70 (± 1) %

Cc1nc(N(C)c2ccc(O[11CH3])cc2)c2ccccc2n1 [[^11C]MPC-6827]
increased radioactivity in destabilized/free tubulin fractions compared to bound fractions ([1]; tracer 30 min at RT): > 90 (± 4) % | whole-brain SUVmax ([7]; WT mice, 0-60 min microPET/CT, IV): 1.74 | time of peak brain radioactivity (TAC) ([7]; both genotypes (tau KO and WT)): around 4 min | whole-brain SUVmax ([7]; tau KO mice, 0-60 min microPET/CT, IV): 2.33 | whole-brain SUVmax in tau KO higher than in WT controls ([7]; tau KO vs WT mice, 0-60 min microPET/CT, IV): 33 (± 2) % | brain uptake ([8]; WT controls, brain): 1.03 ± 0.29 %ID/g | higher brain uptake in tau KO mice compared to WT controls ([8]; brain): ~ 41% | uptake in cortical regions ([8]; controls (WT), cortical regions): 0.69 ± 0.07 %ID/g | uptake in cortical regions of tau KO brains higher than in controls ([8]; cortical regions): 37% | brain uptake ([8]; tau KO mice, brain): 1.76 ± 0.31 %ID/g | uptake in cortical regions ([8]; tau KO mice, cortical regions): 1.11 ± 0.03 %ID/g | higher radioactivity in tau KO brains compared to age-matched controls, cortex ([4]; autoradiography in vitro, cortex): ~ 38[± 2] % | higher radioactivity in tau KO brains compared to age-matched controls, hippocampus ([4]; autoradiography in vitro, hippocampus): ~ 33[± 3] % | higher radioactivity in tau KO brains compared to age-matched controls, midbrain regions ([4]; autoradiography in vitro, midbrain regions): 30[± 3] % | higher radioactivity in tau KO brains compared to age-matched controls, whole brain ([4]; autoradiography in vitro, whole brain): ~ 46[± 4] %

COc1cc2cc(c1Cl)N(C)C(=O)C[C@H](OC(=O)[C@H](C)N(C)C(=O)CCS)[C@]1(C)O[C@H]1[C@H](C)[C@@H]1C[C@@](O)(NC(=O)O1)[C@H](OC)/C=C/C=C(\C)C2 [mertasine]
increase of [11C]MPC-6827 radioactivity in bound fractions [1]: ~ 66 (± 2) % | increase of [11C]MPC-6827 radioactivity in free tubulin fractions [1]: ~ 39 (± 3) % | increase of [11C]MPC-6827 radioactive uptake [3, 9]: 63 (± 2) %

CC(=O)O[C@H]1C(=O)[C@@]2(C)[C@H]([C@H](OC(=O)c3ccccc3)[C@]3(O)C[C@H](OC(=O)[C@H](O)[C@@H](NC(=O)c4ccccc4)c4ccccc4)C(C)=C1C3(C)C)[C@]1(OC(C)=O)CO[C@@H]1C[C@@H]2O [paclitaxel]
decrease of [11C]MPC-6827 radioactivity in bound tubulin fractions [1]: ~ 60 (± 2) % | decrease of [11C]MPC-6827 radioactivity in free tubulin fractions [1]: ~ 36.8 (± 3) %

CC[C@]1(O)C[C@@H]2CN(CCc3c([nH]c4ccccc34)[C@@](C(=O)OC)(c3cc4c(cc3OC)N(C)[C@H]3[C@@](O)(C(=O)OC)[C@H](OC(C)=O)[C@]5(CC)C=CCN6CC[C@]43[C@@H]65)C2)C1 [vinblastine]
increase of [11C]MPC-6827 radioactivity in bound fractions [1]: 84 (± 4) % | increase of [11C]MPC-6827 radioactivity in free tubulin fractions [1]: ~ 43 (± 1) % | increase of [11C]MPC-6827 radioactive uptake [3, 9]: ~ 78 (± 2) %
